# Source: patent US20040186098A1 (Amgen Inc., priority 1997, published 2004)
# Where two headings read alike, the source gives them in different places.
# What was measured:
# [1] = test system: hair cells in rat organ of Corti explant; settings: Compound I 0.05 pM, pretreatment at plating, cisplatin exposure day 2 to day 4; untreated 17%
# [2] = test system: hair cells in rat organ of Corti explant; test: Organ of Corti (cochlea) explant culture, hair cell survival after neomycin; type: cell-based
# Description: The sensorineurotrophic compound stock solution was stored at room temperature and prepared fresh for each culture. The stock solution was diluted in 10 μl of 100% EtOH for every milligram of sensorineurotrophic compound in the stock solution (approximately 250 mM). This solution of 250 mM sensorineurotrophic compound in 100% EtOH was diluted in normal culture medium to working concentrations of 50000 nM, 5000 nM, 500 nM, 50 nM, 5000 pM, 500 pM, 50 pM, 10 pM, 5 pM, 1 pM, 0.5 pM, 0.1 pM, and 0.01 pM. […]
# Organ of Corti explants were obtained from P3-P4 Wistar rats. […] The organ of Corti then was transferred to a 35-mm diameter Petri dish containing cold PBS supplemented with glucose and was ready to be cultured. […]
# To identify and count hair cells in the organ of Corti, a direct immunostaining method was used to label the actin present naturally in the stereocilia bundles of the hair cells. […] The explants were observed under a Nikon Diaphot-300 inverted fluorescence microscope, using FITC filters and fluorescence optics.
# In each cochlea, the number of hair cells was counted in 2-3 sections, 175 μm in length each. Only the sections in the middle turn of the cochlea were analyzed. […]
structure (smiles),measurement,setting,value
CCC(C)(C)C(=O)C(=O)N1CCC[C@H]1C(=O)OCCCc1cccnc1 [Compound I],surviving hair cells,[1],41.4%
same,surviving hair cells,[2]; Compound I 0.05 pM together with 0.6 mM neomycin,31.8%±16.4
same,loss of hair cells,"[2]; Compound I 0.05 pM together with neomycin, neomycin alone 95%",around 70%
